Experimental data published in patent publication US8632832B2, “Direct dissolution” (Phares Pharmaceutical Research N.V., priority 2005, dated 2014).

What was measured:
[1] = Degree of dissolution of the carotenoid in the oily phase: filtration through a 0.45 μm pore size filter, then HPLC of the filtrate; type: physicochemical
Protocol: “Dissolving” or “dissolution” means obtaining molecular dispersions or molecular aggregates of a carotenoid which may be monomers, dimers, trimers etc and/or colloidal dispersions of the carotenoid. Assessment of the degree of dissolution of the carotenoid in an oily phase is performed by filtration of the oily phase through a 0.45 μm pore size filter, followed by HPLC determination of the carotenoid content in the filtrate and compared with the total carotenoid concentration in the unfiltered oily phase. “Substantially” means at least 40 wt %.
(§1) The oily astaxanthin solution may be further processed by mixing with fish feed pellets.

[2] = HPLC analysis of trans/cis isomer content and degradation products after in-line heating and cooling; type: physicochemical; conditions: 1 s
Description: as §1

[3] = Example 2: 1500 or 250 ppm astaxanthin composition, heated 150° C., then cooled

degree of dissolution of astaxanthin after filtration through 0.45 μm filter (HPLC) ([1]; Example 2: 1500 or 250 ppm astaxanthin composition in soya bean oil/fish oil, heated 150° C., transit time 1 s, then cooled): completely solubilised
degree of dissolution of astaxanthin after filtration through 0.45 μm filter (HPLC) ([1]; Example 3: 250 ppm astaxanthin composition in soy bean oil/fish oil, heated 126° C., 1 s, then cooled with fish oil of 23° C.): completely solubilised
all trans-astaxanthin content [2, 3]: 75%
cis isomers content [2, 3]: 25%
further degradation products [2, 3]: no further degradation products
cis-isomers content ([2]; Example 3: 250 ppm astaxanthin composition, heated 126° C., then cooled with fish oil of 23° C.): 12%
Structure (SMILES): CC1=C(/C=C/C(C)=C/C=C/C(C)=C/C=C/C=C(C)/C=C/C=C(C)/C=C/C2=C(C)C(=O)[C@@H](O)CC2(C)C)C(C)(C)C[C@H](O)C1=O [astaxanthin]
